{
  "source": "patent US9585933B2",
  "about": "“Therapeutic use of peptide inhibitors of NADPH oxidase; aerosolization as a delivery mechanism” (University of Pittsburgh—Of the Commonwealth System of …, priority 2011, dated 2017)",
  "key": {"[1]": {"molecular_target": "T1, Nox2 oxidase (COS-Nox2 lysate: Nox2, p22phox, p47phox, p67phox) (Homo sapiens, UniProt P14598)", "T1 construct": "host or cells: COS 7 cells, stably transfected; cell lysate used", "T1 sequence (P14598 1-390)": "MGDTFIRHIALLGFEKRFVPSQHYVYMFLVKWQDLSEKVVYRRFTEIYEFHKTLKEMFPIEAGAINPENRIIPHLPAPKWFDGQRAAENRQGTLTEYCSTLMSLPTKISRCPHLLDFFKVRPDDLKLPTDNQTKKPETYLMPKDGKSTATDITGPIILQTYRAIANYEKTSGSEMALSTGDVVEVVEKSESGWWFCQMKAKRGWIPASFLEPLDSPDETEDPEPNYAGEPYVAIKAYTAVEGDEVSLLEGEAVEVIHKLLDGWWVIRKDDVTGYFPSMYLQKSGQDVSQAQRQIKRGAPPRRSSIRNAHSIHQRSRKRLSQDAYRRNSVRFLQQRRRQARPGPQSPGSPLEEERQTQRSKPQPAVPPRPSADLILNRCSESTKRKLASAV", "test": "Cell-free SOD-inhibitable cytochrome c reduction assay, O2- production in COS-Nox2 lysates", "type": "biochemical", "conditions": "for rate of O2- generation, SOD-inhibitable reduction of cytochrome c: 0 μM control 1.33±0.1", "method": "(§1) To test this hypothesis, the inhibitory activity of Nox2ds was assessed in cell-free assays using reconstituted systems expressing either Nox1, 2 or 4 oxidase. Nox 2 oxidase was recapitulated by stably transfecting COS 7 cells with Nox2, p22phox, p47phox, and p67phox (aka COS-Nox2). Nox1 oxidase was obtained by transfecting COS 7 cells with Nox1, p22phox, NOXO1 and NOXA1 (COS-Nox1), and Nox 4 oxidase was regenerated by transfection of COS 7 cells with Nox4 and p22phox. […] Our new data support selectivity of Nox2ds peptide in differentiating the contribution of Nox2 vs. Nox1 and Nox4 NADPH oxidase and its potential clinical use in ameliorating cardiopulmonary diseases.\nCOS-Nox2: COS 7 cells transfected with p22^phox, Nox2, p47^phox and p67^phox (M. Dinauer, Indiana University). (Price M O, McPhail L C, Lambeth J D, Han C H, Knaus U G, Dinauer M C. Blood. 2002 Apr. 15; 99(8):2653-61.)\nSuperoxide (O2^−) production was measured in COS-Nox1 and COS-Nox2 lysates by determining the rate of O2^− dismutase (SOD) inhibitable cytochrome c reduction and by electron paramagnetic resonance (EPR).\nCOS-Nox2, COS-Nox1/NOXO1/NOXA1, and COS-22 cells were suspended to a concentration of 5×10^7 cells/ml in ice-cold disruption buffer (8 mM potassium, sodium phosphate buffer, pH 7.0, 131 mM NaCl, 340 mM sucrose, 2 mM NaN3, 5 mM MgCl2, 1 mM EGTA, 1 mM EDTA, and protease inhibitor cocktail). The cells were lysed by five freeze/thaw cycles and passed through a 30-gauge needle five times to further lyse the cells. Cell disruption was confirmed by phase-contrast microscopy. The cell lysate was centrifuged at 1000 g for 10 min at 4° C. to remove unbroken cells, nuclei, and debris. Throughout all these procedures, extreme care was taken to maintain the lysate at a temperature close to 0° C. Superoxide production was calculated from the initial linear rate (over 10 min) of SOD-inhibitable cytochrome c reduction quantified at 550 nm using the extinction coefficient of 21.1 mM-1 cm-1 (Biotek Synergy 4 hybrid multimode microplate reader). The oxidase assay buffer consisted of 65 mM sodium phosphate buffer (pH 7.0), 1 mM EGTA, 10 μM FAD, 1 mM MgCl2, 2 mM NaN3, and 0.2 mM cytochrome c. The components of the cell-free system were added in the following order: oxidase assay buffer, cell lysate (5×10^5 cell equivalents/well), and Nox2ds/Scrmb Nox2ds peptides at a final concentration of 0.1, 0.3, 1.0, 3.0, and 10 μM. The plates were placed on an orbital shaker to mix contents for 5 min at 120 movements/min at room temperature. LIDS, an established lipid activator of phagocyte cell-free systems, was added at a concentration of 130 μM, and O2^− production was initiated by the addition of 180 μM NADPH. The concentration of Nox2ds peptide that caused 50% inhibition of O2^− production (IC50) in COS-Nox2 cell lysates was calculated by Prism 5 (GraphPad Software, La Jolla, Calif., USA).\nCytochrome C Assay. FIG. 3A. Rate of O2^− production in COS-Nox2 lysates pretreated with Nox2ds or scrambled control (Scrmb Nox2ds). O2^− production was initiated by the addition of NADPH and measured by the SOD-inhibitable cytochrome c reduction for 10 min."}, "[2]": {"molecular_target": "T2, Nox2 oxidase (COS-Nox2 lysate) (Homo sapiens, UniProt P14598)", "T2 construct": "host or cells: COS 7 cells, stably transfected; cell lysate used", "T2 sequence (P14598 1-390)": "T1 sequence (P14598 1-390)", "test": "EPR with spin probe CMH, O2- production in COS-Nox2 lysates", "type": "biochemical", "conditions": "10 μM peptide, vehicle 36330±2658", "method": "as §1\nThe spin probe 1-hydroxy-3-methoxycarbonyl-2,2,5,5-tetramethylpyrrolidine hydrochloride (CMH; Alexis Corp., San Diego, Calif., USA) was used to examine O2^− production in COS-Nox2 cell lysates using a Bruker eScan table-top EPR spectrometer (Bruker Biospin, USA). Superoxide production was measured in oxidase assay buffer (65 mM sodium phosphate buffer, pH 7.0, 1 mM EGTA, 10 μM FAD, 1 mM MgCl2, 2 mM NaN3) supplemented with 50 μM CMH. […] Analyses of the EPR spectra peak heights were used to quantify the amount of O2^− produced by the lysates and were compared with buffer-only control spectra or spectra in the presence of 10 μM Nox2ds, 10 μM Scrmb Nox2ds, or 150 U/ml SOD. […]"}},
  "note": "Where no end group is shown, it is not given here.",
  "data": [
    {"substance": "CSTRVRRQL-NH2 [Nox2ds, CSTRVRRQL]", "values": [
      {"measurement": "rate of O2- generation, SOD-inhibitable reduction of cytochrome c", "setting": "[1]; 0.1 μM peptide", "value": "1.36±0.1 nmol O2^−/min/10^7 lysate-cell equivalents"},
      {"measurement": "rate of O2- generation, SOD-inhibitable reduction of cytochrome c", "setting": "[1]; 0.3 μM peptide", "value": "1.05±0.2 nmol O2^−/min/10^7 lysate-cell equivalents"},
      {"measurement": "rate of O2- generation, SOD-inhibitable reduction of cytochrome c", "setting": "[1]; 1 μM peptide", "value": "0.83±0.1 nmol O2^−/min/10^7 lysate-cell equivalents"},
      {"measurement": "rate of O2- generation, SOD-inhibitable reduction of cytochrome c", "setting": "[1]; 3 μM peptide", "value": "0.82±0.1 nmol O2^−/min/10^7 lysate-cell equivalents"},
      {"measurement": "rate of O2- generation, SOD-inhibitable reduction of cytochrome c", "setting": "[1]; 10 μM peptide", "value": "0.54±0.1 nmol O2^−/min/10^7 lysate-cell equivalents"},
      {"measurement": "inhibition of Nox2-oxidase O2- production (in words)", "setting": "[1]; cytochrome c assay", "value": "concentration-dependently inhibited"},
      {"measurement": "CM radical intensity (EPR, O2- production)", "setting": "[2]", "value": "18360±2666"}
    ]}
  ]
}
